In patent US20110190336A1, “AZABENZIMIDAZOLONES” (CARA THERAPEUTICS, INC., priority 2008, published 2011):

Target: T1, human DP2 receptor (Homo sapiens, UniProt Q9Y5Y4)
T1 construct: expressed in transfected cells; host or cells: CHO-K1 FLP-In (Invitrogen, catalog no. R758-07), stably transfected
T1 sequence (Q9Y5Y4 1-395): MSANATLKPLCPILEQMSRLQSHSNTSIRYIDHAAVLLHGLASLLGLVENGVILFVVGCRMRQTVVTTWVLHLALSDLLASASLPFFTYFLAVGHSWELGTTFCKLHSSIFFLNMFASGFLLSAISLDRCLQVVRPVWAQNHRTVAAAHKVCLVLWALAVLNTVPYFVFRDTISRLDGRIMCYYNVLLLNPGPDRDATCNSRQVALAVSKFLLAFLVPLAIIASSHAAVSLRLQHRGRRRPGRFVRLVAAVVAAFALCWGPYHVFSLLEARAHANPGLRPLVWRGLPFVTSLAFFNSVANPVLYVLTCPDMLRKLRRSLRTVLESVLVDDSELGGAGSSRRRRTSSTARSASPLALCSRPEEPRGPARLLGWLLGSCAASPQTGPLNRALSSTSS
Experiment: Prostaglandin D2 binding inhibition assay (scintillation proximity assay, 3H PGD2, membranes of transfected CHO cells)
Conditions: SPA, 5.5 nM 3H PGD2, CHO-K1 FLP-In human DP2 membranes; upper limit determinable 30 μM; read-out: IC50 ranges for inhibition of PGD2 binding to human DP2
Experimental: The ability of compounds to inhibit binding of prostaglandin D2 (PGD2) to the human DP2 receptor was measured using a scintillation proximity assay (SPA). Chinese Hamster Ovary FLP-In cell lines (CHO-K1 FLP-In, Invitrogen, catalog no. R758-07) were stably transfected with the human DP2 gene (Genebank: AY507142). Cell lines were grown in suspension in EX-CELL 302 CHO Serum-free medium (Sigma, catalog no. 14324C) supplemented with 1% Fetal Bovine Serum (Invitrogen no. 10099-141), 2 mM L-glutamine (Invitrogen, catalog no. 25030-081) and 0.5 mg/ml Hygromycin B (Invitrogen, catalog no. 10687-010). Cells were collected by centrifugation in a Beckman Coulter Allegra X-12R centrifuge at 150×g for 5 minutes at room temperature.
Membranes from transfected cells were isolated for binding assays. Cell pellets containing approximately 2×10^9 cells were resuspended in 35 ml of cold membrane homogenization buffer (10 mM Tris (Sigma, catalog no. T2663), 1 mM EDTA (Fluka BioChemika no. 03690), and 70 μl of protease inhibitor cocktail (Sigma, catalog no. P8340)). Cells were homogenized with 30 strokes of a dounce homogenizer (Kontes, catalog no. 885303-0040), and the solution centrifuged at 200×g for 10 minutes. The supernatant was transferred to a 50 ml Oakridge tube (Beckman, catalog no. 357000) and centrifuged in a Beckman Coulter Avanti J-26×PI centrifuge with a JA30.50 rotor at 81,000×g for 1 hour at 15° C. The pellet was resuspended in membrane storage buffer (50 mM Tris (Sigma, catalog no. T2663), 2.5 mM EDTA (Fluka BioChemika no. 03690), 5 mM magnesium chloride (Sigma, catalog no. M1028), 100 mg/ml sucrose (Sigma, catalog no. 50389) and a 1:500 dilution of protease inhibitor cocktail (Sigma, catalog no. P8340)) and the total protein was quantitated using a BCA protein measurement kit (Pierce, catalog no. 23225). Aliquots were frozen at −80° C. until used. Compounds were tested for their ability to inhibit PGD2 binding to the purified membranes. 5 μg of the purified membranes, 0.25 mg of wheat germ agglutinin PVT SPA beads (GE Healthcare, catalog no. RPNQ0060) and 5.5 nM of ^3H PGD2 (PerkinElmer, catalog no. NET-616) were mixed in assay buffer ((50 mM Tris (Sigma, catalog no. T2663), 10 mM magnesium chloride (Sigma, catalog no. M1028), 100 mM sodium chloride (Sigma, catalog no. S6546) and 0.1% bovine serum albumin (Sigma, catalog no. A2153)). Using a Multidrop bulk dispenser, 75 μl of the assay mixture was dispensed in Optiplates (PerkinElmer, catalog no. 6007299) containing the compounds to be tested. After a 60 minute incubation period at room temperature, the plates were read on a PerkinElmer Topcount NXT HTS, and individual wells were quantitated as counts per minute (CPM). Data were expressed as a percent of the difference between the maximum and minimum responses. IC50 values (the concentration of compound producing 50% of the maximal response) were determined using a two-parameter non-linear regression algorithm analyzed using CambridgeSoft Bioassay software. Table 2 gives the range of IC50 values for claimed compounds in the binding assay.

| SMILES | IC50 [µM] |
| --- | --- |
| Cc1noc(C)c1S(=O)(=O)N1CCC(n2c(=O)n(CC(=O)O)c3cccnc32)CC1 [Compound 54, 2-(3-(1-(3,5-dimethylisoxazol-4-ylsulfonyl)piperidin-4-yl)-2-oxo-2,3-dihydro-1H-imidazo[4,5-b]pyridin-1-yl)acetic acid] | > 30 |
| O=C(O)Cn1c(=O)n(C2CCN(S(=O)(=O)c3ccc(F)cc3)CC2)c2ncccc21 [Compound 55, 2-(3-(1-(4-fluorophenylsulfonyl)piperidin-4-yl)-2-oxo-2,3-dihydro-1H-imidazo[4,5-b]pyridin-1-yl)acetic acid] | 1 to 10 |
| Cc1ccc(CS(=O)(=O)N2CCC(n3c(=O)n(CC(=O)O)c4cccnc43)CC2)cc1 [Compound 56, 2-(3-(1-(4-methylbenzylsulfonyl)piperidin-4-yl)-2-oxo-2,3-dihydro-1H-imidazo[4,5-b]pyridin-1-yl)acetic acid] | 10 to 30 |
| O=C(O)Cn1c(=O)n(C2CCN(S(=O)(=O)c3ccc(Cl)cc3)CC2)c2ncccc21 [Compound 57, 2-(3-(1-(4-chlorophenylsulfonyl)piperidin-4-yl)-2-oxo-2,3-dihydro-1H-imidazo[4,5-b]pyridin-1-yl)acetic acid] | 1 to 10 |
| O=C(O)Cn1c(=O)n(C2CCN(S(=O)(=O)c3ccccc3Cl)CC2)c2ncccc21 [Compound 58, 2-(3-(1-(2-chlorophenylsulfonyl)piperidin-4-yl)-2-oxo-2,3-dihydro-1H-imidazo[4,5-b]pyridin-1-yl)acetic acid] | < 1 |
| O=C(O)Cn1c(=O)n(C2CCN(S(=O)(=O)c3ccc4ccccc4c3)CC2)c2ncccc21 [Compound 59, 2-(3-(1-(naphthalen-2-ylsulfonyl)piperidin-4-yl)-2-oxo-2,3-dihydro-1H-imidazo[4,5-b]pyridin-1-yl)acetic acid] | 1 to 10 |
| O=C(O)Cn1c(=O)n(C2CCN(S(=O)(=O)c3ccsc3)CC2)c2ncccc21 [Compound 60, 2-(2-oxo-3-(1-(thiophen-3-ylsulfonyl)piperidin-4-yl)-2,3-dihydro-1H-imidazo[4,5-b]pyridin-1-yl)acetic acid] | 1 to 10 |
| N#Cc1ccc(S(=O)(=O)N2CCC(n3c(=O)n(CC(=O)O)c4cccnc43)CC2)cc1 [Compound 61, 2-(3-(1-(4-cyanophenylsulfonyl)piperidin-4-yl)-2-oxo-2,3-dihydro-1H-imidazo[4,5-b]pyridin-1-yl)acetic acid] | 1 to 10 |
| Cc1cccc(CS(=O)(=O)N2CCC(n3c(=O)n(CC(=O)O)c4cccnc43)CC2)c1 [Compound 62, 2-(3-(1-(3-methylbenzylsulfonyl)piperidin-4-yl)-2-oxo-2,3-dihydro-1H-imidazo[4,5-b]pyridin-1-yl)acetic acid] | 1 to 10 |
| O=C(O)Cn1c(=O)n(C2CCN(S(=O)(=O)Cc3ccc(F)cc3)CC2)c2ncccc21 [Compound 64, 2-(3-(1-(4-fluorobenzylsulfonyl)piperidin-4-yl)-2-oxo-2,3-dihydro-1H-imidazo[4,5-b]pyridin-1-yl)acetic acid] | < 1 |
| CC(C)(C)c1ccc(S(=O)(=O)N2CCC(n3c(=O)n(CC(=O)O)c4cccnc43)CC2)cc1 [Compound 65, 2-(3-(1-(4-tert-butylphenylsulfonyl)piperidin-4-yl)-2-oxo-2,3-dihydro-1H-imidazo[4,5-b]pyridin-1-yl)acetic acid] | 1 to 10 |
| CS(=O)(=O)c1cccc(S(=O)(=O)N2CCC(n3c(=O)n(CC(=O)O)c4cccnc43)CC2)c1 [Compound 66, 2-(3-(1-(3-(methylsulfonyl)phenyl-sulfonyl)piperidin-4-yl)-2-oxo-2,3-dihydro-1H-imidazo[4,5-b]pyridin-1-yl)acetic acid] | 1 to 10 |
| O=C(O)Cn1c(=O)n(C2CCN(S(=O)(=O)c3ccccc3[N+](=O)[O-])CC2)c2ncccc21 [Compound 67, 2-(3-(1-(2-nitrophenylsulfonyl)piperidin-4-yl)-2-oxo-2,3-dihydro-1H-imidazo[4,5-b]pyridin-1-yl)acetic acid] | < 1 |
| O=C(O)Cn1c(=O)n(C2CCN(S(=O)(=O)c3cccnc3)CC2)c2ncccc21 [Compound 68, 2-(2-oxo-3-(1-(pyridin-3-ylsulfonyl)piperidin-4-yl)-2,3-dihydro-1H-imidazo[4,5-b]pyridin-1-yl)acetic acid] | 10 to 30 |
| N#Cc1cccc(S(=O)(=O)N2CCC(n3c(=O)n(CC(=O)O)c4cccnc43)CC2)c1 [Compound 69, 2-(3-(1-(3-cyanophenylsuIfonyl)piperidin-4-yl)-2-oxo-2,3-dihydro-1H-imidazo[4,5-b]pyridin-1-yl)acetic acid] | 1 to 10 |
| N#Cc1ccccc1S(=O)(=O)N1CCC(n2c(=O)n(CC(=O)O)c3cccnc32)CC1 [Compound 70, 2-(3-(1-(2-cyanophenylsulfonyl)piperidin-4-yl)-2-oxo-2,3-dihydro-1H-imidazo[4,5-b]pyridin-1-yl)acetic acid] | < 1 |
| O=C(O)Cn1c(=O)n(C2CCN(S(=O)(=O)c3ccc(Cl)cc3F)CC2)c2ncc(F)cc21 [Compound 71, 2-(3-(1-(4-chloro-2-fluorophenyl-sulfonyl)piperidin-4-yl)-6-fluoro-2-oxo-2,3-dihydro-1H-imidazo[4,5-b]pyridin-1-yl)acetic acid] | 1 to 10 |
| O=C(O)Cn1c(=O)n(C2CCN(S(=O)(=O)c3cccc4cccnc34)CC2)c2ncc(F)cc21 [Compound 72, 2-(6-fluoro-2-oxo-3-(1-(quinolin-8-ylsulfonyl)piperidin-4-yl)-2,3-dihydro-1H-imidazo[4,5-b]pyridin-1-yl)acetic acid] | 1 to 10 |
| CC(C)Oc1ccc(S(=O)(=O)N2CCC(n3c(=O)n(CC(=O)O)c4cc(F)cnc43)CC2)cc1 [Compound 73, 2-(6-fluoro-3-(1-(4-isopropoxyphenyl-sulfonyl)piperidin-4-yl)-2-oxo-2,3-dihydro-1H-imidazo[4,5-b]pyridin-1-yl)acetic acid] | 10 to 30 |
| CS(=O)(=O)c1ccccc1S(=O)(=O)N1CCC(n2c(=O)n(CC(=O)O)c3cc(F)cnc32)CC1 [Compound 74, 2-(6-fluoro-3-(1-(2-(methylsulfonyl)phenylsulfonyl)piperidin-4-yl)-2-oxo-2,3-dihydro-1H-imidazo[4,5-b]pyridin-1-yl)acetic acid] | < 1 |
| CC(C)Oc1ccc(S(=O)(=O)N2CCC(n3c(=O)n(CC(=O)O)c4cccnc43)CC2)cc1 [Compound 75, 2-(3-(1-(4-isopropoxyphenylsulfonyl)piperidin-4-yl)-2-oxo-2,3-dihydro-1H-imidazo[4,5-b]pyridin-1-yl)acetic acid] | > 30 |
| Cc1cc(S(=O)(=O)N2CCC(n3c(=O)n(CC(=O)O)c4cccnc43)CC2)c(C)s1 [Compound 76, 2-(3-(1-(2,5-dimethylthiophen-3-ylsulfonyl)piperidin-4-yl)-2-oxo-2,3-dihydro-1H-imidazo[4,5-b]pyridin-1-yl)acetic acid] | 1 to 10 |
| O=C(O)Cn1c(=O)n(C2CCN(S(=O)(=O)c3ccc(Oc4ccccc4)cc3)CC2)c2ncccc21 [Compound 77, 2-(2-oxo-3-(1-(4-phenoxyphenyl-sulfonyl)piperidin-4-yl)-2,3-dihydro-1H-imidazo[4,5-b]pyridin-1-yl)acetic acid] | 1 to 10 |
